Data from patent US7230002B2, “Dipeptidyl peptidase IV inhibitors; processes for their preparation and compositions thereof” (Glenmark Pharmaceuticals Ltd., priority 2004, dated 2007).
Where a name gives a salt, the structure may show the parent alone.

The compounds below were run against T1, human recombinant Dipeptidyl peptidase IV enzyme (Homo sapiens, UniProt P27487) (assay: In-vitro DPP-IV assay (cleavage of Gly-Pro-AMC)). Settings: at 300 nM, n = 3, read-out: DPP-IV inhibition, percent inhibition at 300 nM.
T1 construct: purchased R & D Systems
T1 sequence (P27487 whole entry): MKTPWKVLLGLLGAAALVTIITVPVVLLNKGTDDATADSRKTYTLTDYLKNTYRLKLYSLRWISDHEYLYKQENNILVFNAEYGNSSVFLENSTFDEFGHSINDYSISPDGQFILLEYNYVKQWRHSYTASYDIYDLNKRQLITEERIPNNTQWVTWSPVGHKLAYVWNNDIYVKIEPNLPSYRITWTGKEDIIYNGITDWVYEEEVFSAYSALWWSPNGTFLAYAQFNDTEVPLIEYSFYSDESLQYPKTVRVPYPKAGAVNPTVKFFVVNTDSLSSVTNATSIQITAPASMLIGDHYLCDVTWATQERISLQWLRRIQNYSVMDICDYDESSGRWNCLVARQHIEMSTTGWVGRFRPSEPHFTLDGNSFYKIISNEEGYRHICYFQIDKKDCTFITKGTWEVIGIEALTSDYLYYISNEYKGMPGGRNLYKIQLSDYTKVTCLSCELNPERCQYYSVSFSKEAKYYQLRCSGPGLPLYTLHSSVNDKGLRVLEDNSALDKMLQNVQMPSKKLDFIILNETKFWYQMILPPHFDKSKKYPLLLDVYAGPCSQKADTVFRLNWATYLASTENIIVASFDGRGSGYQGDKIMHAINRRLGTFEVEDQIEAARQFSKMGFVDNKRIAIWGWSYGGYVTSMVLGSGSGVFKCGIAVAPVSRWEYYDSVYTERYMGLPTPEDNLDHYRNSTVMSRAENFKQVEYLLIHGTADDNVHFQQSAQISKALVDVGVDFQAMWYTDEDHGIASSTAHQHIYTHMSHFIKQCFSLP
Format: biochemical
Method: Protocol for In-Vitro DPP-IV Assay
DPPIV activity was determined by the cleavage rate of 7-amino-4-methyl coumarin (AMC) from synthetic substrate Glycyl-Prolyl-AMC. In brief, the assay was conducted by adding 10 ng of human recombinant Dipeptidyl peptidase IV enzyme (DPPIV, available commercially from R & D Systems) in 50 μl of the assay buffer (25 mM Tris, pH 7.4, 140 mM NaCl, 10 mM KCl, 1% BSA) to 96 well black flat bottom microtiter plates. The reaction was initiated by adding 50 μl of 100 μM substrate Gly-Pro-AMC. The incubation was carried out in the kinetic mode at 30° C. for 30 minutes. Fluorescence was measured using Fluorostar at excitation filter of 380 nm and emission filter of 460 nm). Test compounds and solvent controls were added as 1 μl additions. A standard curve of free amino methyl coumarin (AMC) was generated using 0–100 μM AMC in the assay buffer. The curve generated, which was linear was used for the interpolation of catalytic activity.
Test compounds dissolved in DMSO at 5–6 concentrations were tested in duplicate along with the solvent control and blank samples. Percent inhibition was calculated at each concentration with respect to the solvent control sample (no test compound added). IC50 values were calculated from 3 experiments using the prism software.
Compound `N#Cc1ccc(NCC2CCC(NCC(=O)N3CCCC3)C2)nc1` (racemic) [Example-1, cis-(±)-6-(3-[2-(1-Pyrrolidinyl)-2-oxoethylamino]cyclopentylmethylamino)nicotino-nitrile] has an inhibition at 0.3 µM of 6%. For `N#Cc1ccc(NCC2CCC(NCC(=O)N3CCSC3)C2)nc1` (stereo not drawn) [Example-2], the inhibition at 0.3 µM was 17%.

Same assay, conditions: n = 3, substrate Gly-Pro-AMC, 30° C., 30 minutes, read-out: DPP-IV inhibition IC50
Work on `N#Cc1ccc(NCC2CCC(NCC(=O)N3C[C@@H](F)C[C@H]3C#N)C2)nc1` (mixture of isomers) [Example-14, 6-((1SR,3RS)-3-{2-[(2S,4S)-2-Cyano-4-fluoropyrrolidin-1-yl]-2-oxoethylamino}-cyclopentylmethylamino)nicotinonitrile] yielded an IC50 of 3.58 nM. Work on `N#C[C@@H]1CCCN1C(=O)CNC1CCC(CNc2ncccn2)C1` (mixture of isomers) [Example-18, (2S)-1-{2-[(3SR,1RS)-3-(2-Pyrimidinylaminomethyl)cyclopentylamino)acetyl}-pyrrolidine-2-carbonitrile] yielded an IC50 of 9.8 nM. In the case of `N#C[C@@H]1CCCN1C(=O)CNC1CCC(CNc2ncccn2)C1` (mixture of isomers) [Example-19, (2S)-1-{2-[(3SR,1RS)-3-(2-Pyrimidinylaminomethyl)cyclopentylamino)acetyl}-pyrrolidine-2-carbonitrile dihydrochloride], the IC50 is reported as 20 nM. With `N#C[C@@H]1CCCN1C(=O)CNC1CCC(CNc2ccc([N+](=O)[O-])c(Cl)c2)C1` (mixture of isomers) [Example-23, (2S)-1-{2-[(3SR,1RS)-3-(3-Chloro-4-nitroanilinomethyl)cyclopentylamino]acetyl}-pyrrolidine-2-carbonitrile] the IC50 was 14.6 nM. `N#C[C@@H]1CCCN1C(=O)CNC1CCC(CNc2ccc([N+](=O)[O-])cc2F)C1` (mixture of isomers) [Example-24, (2S)-1-{2-[(3SR,1RS)-3-(2-Fluoro-4-nitroanilinomethyl)cyclopentylamino]acetyl}-pyrrolidine-2-carbonitrile] gave an IC50 of 6.29 nM. Work on `N#C[C@@H]1CCCN1C(=O)CNC1CCC(CNc2cc(F)c(F)cc2F)C1` (mixture of isomers) [Example-27, (2S)-1-{2-[(3SR,1RS)-3-(2,4,5-Trifluoroanilinomethyl)cyclopentylamino]acetyl}-pyrrolidine-2-carbonitrile] yielded an IC50 of 17.4 nM. `N#C[C@@H]1CCCN1C(=O)CNC1CCC(CSc2ccccc2)C1` (mixture of isomers) [Example-28, (2S)-1-{2-[(3SR,1RS)-3-Phenylsulfanylmethylcyclopentylamino]acetyl}-pyrrolidine-2-carbonitrile] showed an IC50 of 22.3 nM. `N#Cc1ccc(SCC2CCC(NCC(=O)N3CCC[C@H]3C#N)C2)nc1` (mixture of isomers) [Example-38, 6-((1SR,3RS)-3-{2-[(2S)-2-Cyanopyrrolidin-1-yl]-2-oxoethylamino}cyclopentyl-methylsulfanyl)nicotinonitrile] gave an IC50 of 9.42 nM. In the case of `N#Cc1ccc(S(=O)(=O)CC2CCC(NCC(=O)N3CCC[C@H]3C#N)C2)nc1` (mixture of isomers) [Example-40, 6-((1SR,3RS)-3-{2-[(2S)-2-Cyanopyrrolidin-1-yl)-2-oxoethylamino}cyclopentyl-methylsulfonyl)nicotinonitrile], the IC50 is reported as 78.7 nM. With `N#Cc1ccc(NCC2CCC(NCC(=O)N3CCC[C@H]3C#N)C2)nc1` (mixture of isomers) [Example-3, 6-((1SR,3RS)-3-{2-[(2S)-2-Cyanopyrrolidin-1-yl]-2-oxoethylamino}cyclopentyl-methylamino)nicotinonitrile] the IC50 was 6.29 nM. Work on `N#Cc1ccc(NCC2CCC(NCC(=O)N3CCC[C@H]3C#N)C2)nc1` (mixture of isomers) [Example-4, 6-((1SR,3RS)-3-{2-[(2S)-2-Cyanopyrrolidin-1-yl]-2-oxoethylamino}cyclopentyl-methylamino)nicotinonitrile dihydrochloride] yielded an IC50 of 10 nM. `N#Cc1ccc(NCC2CCC(NCC(=O)N3CCC[C@H]3C#N)C2)nc1` (mixture of isomers) [Example-5, 6-((1SR,3RS)-3-{2-[(2S)-2-Cyanopyrrolidin-1-yl]-2-oxoethylamino}cyclopentyl-methylamino)nicotinonitrile maleate] was tested, and the IC50 was 10.3 nM. `N#Cc1ccc(NCC2CCC(NCC(=O)N3CCC[C@H]3C#N)C2)nc1` (mixture of isomers) [Example-7, 6-((1SR,3RS)-3-{2-[(2S)-2-Cyanopyrrolidin-1-yl]-2-oxoethylamino}cyclopentyl-methylamino)nicotinonitrile citrate] was tested, and the IC50 was 11.7 nM. In the case of `N#Cc1ccc(NCC2C=CC(NCC(=O)N3CCC[C@H]3C#N)C2)nc1` (mixture of isomers) [Example-12], the IC50 is reported as 11.2 nM. Work on `N#Cc1ccc(NC[C@@H]2CC[C@@H](NCC(=O)N3CCC[C@H]3C#N)C2)nc1` (racemic) [Example-13, 6-((1RS,3RS)-3-{2-[(2S)-2-Cyanopyrrolidin-1-yl]-2-oxoethylamino}cyclopentyl-methylamino)nicotinonitrile] yielded an IC50 of 12.1 nM. Work on `N#Cc1ccc(NCC2CCC(NCC(=O)N3CSC[C@H]3C#N)C2)nc1` (mixture of isomers) [Example-16, (4S)-3-{2-(1SR,3RS)-3-[(5-Cyano-2-pyridylaminomethyl)cyclopentylamino]acetyl}-1,3-thiazolane-4-carbonitrile dihydrochloride] yielded an IC50 of 2.76 nM. Work on `N#Cc1ccc(NC[C@@H]2CC[C@@H](NCC(=O)N3CSC[C@H]3C#N)C2)nc1` (racemic) [Example-17, (4S)-3-{2-(1RS,3RS)-3-[(5-Cyano-2-pyridylaminomethyl)cyclopentylamino]acetyl}-1,3-thiazolane-4-carbonitrile dihydrochloride] yielded an IC50 of 2.93 nM. For `N#C[C@@H]1CCCN1C(=O)CNC1CCC(CS(=O)(=O)c2ccccc2)C1` (mixture of isomers) [Example-29], the IC50 was 10 nM. Compound `N#Cc1ccc(SCC2CCC(NCC(=O)N3CCC[C@H]3C#N)C2)nc1` (mixture of isomers) [Example-39, 6-((1SR,3RS)-3-{2-[(2S)-2-Cyanopyrrolidin-1-yl]-2-oxoethylamino}cyclopentyl-methylsulfanyl)nictinonitrile maleate] has an IC50 of 11.1 nM. `N#C[C@@H]1CCCN1C(=O)CNC1CCC(COc2ccc([N+](=O)[O-])cc2)C1` (mixture of isomers) [Example-43, (2S)-1-{2-[(3SR,1RS)-3-(4-Nitrophenoxymethyl)cyclopentylamino]acetyl}-pyrro-lidine-2-carbonitrile] was tested, and the IC50 was 35.9 nM. `N#Cc1ccc(NC[C@H]2CC[C@@H](NCC(=O)N3CCC[C@H]3C#N)C2)nc1` [Example-8, 6-((1S,3R)-3-{2-[(2S)-2-Cyanopyrrolidin-1-yl]-2-oxoethylamino}cyclopentylmethyl-amino)nicotinonitrile] gave an IC50 of 10.6 nM. `N#Cc1ccc(NC[C@H]2CC[C@@H](NCC(=O)N3CCC[C@H]3C#N)C2)nc1` [Example-9, 6-((1S,3R)-3-{2-[(2S)-2-Cyanopyrrolidin-1-yl]-2-oxoethylamino}cyclopentylmethyl-amino)nicotinonitrile dihydrochloride] was tested, and the IC50 was 6.27 nM. Work on `N#Cc1ccc(NC[C@@H]2CC[C@H](NCC(=O)N3CCC[C@H]3C#N)C2)nc1` [Example-10, 6-((1R,3S)-3-{2-[(2S)-2-Cyanopyrrolidin-1-yl]-2-oxoethylamino}cyclopentylmethyl-amino)nicotinonitrile] yielded an IC50 of 7.81 nM. `N#Cc1ccc(NC[C@@H]2CC[C@H](NCC(=O)N3CCC[C@H]3C#N)C2)nc1` [Example-11, 6-((1R,3S)-3-{2-[(2S)-2-Cyanopyrrolidin-1-yl]-2-oxoethylamino}cyclopentylmethyl-amino)nicotinonitrile dihydrochloride] showed an IC50 of 13.9 nM. `N#Cc1ccc(NC[C@H]2CC[C@@H](NCC(=O)N3C[C@@H](F)C[C@H]3C#N)C2)nc1` [Example-15, 6-((1S,3R)-3-{2-[(2S,4S)-2-Cyano-4-fluoropyrrolidin-1-yl]-2-oxoethylamino}cyclo-pentylmethylamino)nicotinonitrile] gave an IC50 of 3.17 nM. Work on `N#C[C@@H]1CCCN1C(=O)CN[C@@H]1CC[C@H](CNc2ncccn2)C1` [Example-20, (2S)-1-{2-[(3S,1R)-3-(2-Pyrimidinylaminomethyl)cyclopentylamino)acetyl}-pyrrolidine-2-carbonitrile] yielded an IC50 of 41.3 nM. For `N#C[C@@H]1CCCN1C(=O)CN[C@H]1CC[C@@H](CNc2ncccn2)C1` [Example-21], the IC50 was 6.74 nM. `N#C[C@@H]1CCCN1C(=O)CN[C@@H]1CC[C@H](CNc2nnnn2-c2ccccc2)C1` [Example-22, (2S)-1-{2-[(3S,1R)-3-(1-Phenyl-1H-1,2,3,4-tetraazol-5-ylaminomethyl)cyclopentyl-amino]acetyl}-pyrrolidine-2-carbonitrile] was tested, and the IC50 was 10.4 nM. `N#C[C@@H]1CCCN1C(=O)CN[C@@H]1CC[C@H](CNc2ccc([N+](=O)[O-])cc2F)C1` [Example-25, (2S)-1-{2-[(1R,3S)-3-(2-Fluoro-4-nitroanilinmethyl)cyclopentylamino]acetyl}-pyrrolidine-2-carbonitrile] showed an IC50 of 8.59 nM. `N#C[C@@H]1C[C@H](F)CN1C(=O)CN[C@@H]1CC[C@H](CNc2ccc([N+](=O)[O-])cc2F)C1` [Example-26] was tested, and the IC50 was 5.16 nM. In the case of `N#C[C@@H]1CCCN1C(=O)CN[C@@H]1CC[C@H](CSc2ccccc2)C1` [Example-30, (2S)-1-{2-[(3S,1R)-3-Phenylsulfanylmethylcycopentylamino]acetytl}-pyrrolidine-2-carbonitrile], the IC50 is reported as 63.4 nM.
